{"source": "patent US20240325493A1", "about": "“REGULATOR OF TUMOR CELL FUNCTIONS AND USES THEREOF” (Washington University, priority 2023, published 2024)", "key": {"[1]": {"system": "Zbtb46 in bone marrow-derived dendritic cells (BMDC)", "test": "Zbtb46 mRNA expression in bone marrow-derived dendritic cells treated with tumor-derived factors", "type": "cell-based, mouse", "conditions": "in vitro, 24 hours, vs PBS", "protocol": "FIG. 13B is a graph of Zbtb46 mRNA expression in bone marrow-derived dendritic cells (BMDC) treated with PBS, prostaglandin E2 (PGE2), vascular endothelial growth factor (VEGF), or retinoic acid (RA) for 24 hours. n≥3/group. One-way ANOVA with Dunnett's test.\n(§1) Quantitative real-time reverse transcription PCR (qRT-PCR) was performed. cDNA was prepared with qScript™ CDNA SuperMix (Cat: 101414-106, VWR) according to the manufacturer's protocol. Gene expression was measured by quantitative real-time RT-PCR using primers."}, "[2]": {"system": "Zbtb46 in MCEC (mouse cardiac endothelial cells)", "test": "Zbtb46 mRNA expression in MCEC cells treated with tumor-derived factors", "type": "cell-based", "conditions": "in vitro, 24 hours", "protocol": "FIG. 13A is a set of graphs of Zbtb46 mRNA expression in MCEC cells, with loading control b-Actin (left) and Gapdh (right), treated with PBS or tumor-conditioned media (TCM) for 24 hours. n≥3/group. One-way ANOVA with Dunnett's test.\nas §1"}}, "data": [{"compound": "CCCCC[C@H](O)/C=C/[C@H]1[C@H](O)CC(=O)[C@@H]1C/C=C\\CCCC(=O)O", "note": "[PGE2, prostaglandin E2]", "values": [{"measurement": "Zbtb46 expression in DC", "setting": "[1]", "value": "downregulated"}, {"measurement": "Zbtb46 expression in EC", "setting": "[2]", "value": "downregulated"}]}, {"compound": "VEGF", "values": [{"measurement": "Zbtb46 expression in DC", "setting": "[1]", "value": "downregulated"}, {"measurement": "Zbtb46 expression in EC", "setting": "[2]", "value": "downregulated"}]}]}
